Test results reported in paper PMC3530924 (Bioorganic & medicinal chemistry, 2010).
Read-outs that look alike come from different tables or passages of the source.

Tests used:
[1] = target: T1, CT-L activity of purified rabbit 20S proteasome (Oryctolagus cuniculus, UniProt G1SU71+G1T4Q9); experiment: Fluorometric assay of CT-L proteolytic activity of purified 20S proteasome; assay type: biochemical
T1 sequence (G1T4Q9 60-263): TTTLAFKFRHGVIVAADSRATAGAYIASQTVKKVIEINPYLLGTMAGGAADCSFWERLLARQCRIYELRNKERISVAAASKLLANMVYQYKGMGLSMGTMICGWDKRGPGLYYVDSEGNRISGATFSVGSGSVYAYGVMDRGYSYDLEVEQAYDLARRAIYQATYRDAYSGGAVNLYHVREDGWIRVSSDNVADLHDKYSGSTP
T1 sequence (G1SU71 29-241): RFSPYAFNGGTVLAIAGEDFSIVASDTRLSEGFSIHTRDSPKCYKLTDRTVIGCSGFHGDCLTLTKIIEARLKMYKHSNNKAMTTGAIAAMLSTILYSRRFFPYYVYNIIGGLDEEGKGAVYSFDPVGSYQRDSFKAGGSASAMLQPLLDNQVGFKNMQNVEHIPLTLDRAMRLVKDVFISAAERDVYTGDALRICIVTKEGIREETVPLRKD

[2] = test system: CT-L activity of rabbit 20S proteasome; experiment: Dialysis; assay type: biochemical; details: compounds 10 µM; for inhibition of CT-L activity of the 20S proteasome in the absence of dialysis: 3 nM rabbit 20S proteasome, 30 min pre-incubation, no dialysis; for time of dialysis at which CT-L activity started to recover: dialysis at 4 °C against assay buffer
MCF-7 cells = details: read-out: IC50 cell viability; cited from earlier work
[3] = test system: primary cells derived from patients with multiple myeloma; details: cited from earlier work
[4] = test system: cancer cell lines derived from prostate, lung and multiple myeloma; details: cited from earlier work
[5] = test system: human breast and lung tumors implanted as xenografts; details: nude mice; cited from earlier work
purified Calpain = experiment: Inhibition of purified Calpain; assay type: biochemical; details: read-out: IC50 purified Calpain; data not reported in the paper
[6] = read-out: In vitro IC50 CT-L activity, purified rabbit 20S proteasome, Suc-Leu-Leu-Val-Tyr-AMC, 1 hour at 37 °C, pH 7.6, tested in triplicate at least twice

Molecule | IC50 [1] | other results
4-(6-amino-3-chloro-1,4-dioxo-1,4-dihydronaphthalen-2-ylamino)-N- (pyridin-2-yl)benzenesulfonamide and 4-(7-amino-3-chloro-1,4-dioxo-1,4-dihydronaphthalen-2-ylamino)- N-(pyridin-2-yl)benzenesulfonamide [Compound 8] | – | inhibitory activity in the in vitro enzymatic assay ([1]; CT-L, mixtures of isomers): did not lead to any appreciable inhibitory activities
O=C1C=CC(=O)c2ccccc21 [1,4-naphthoquinone] | > 100 µM | –
O=C1C(Cl)=C(Cl)C(=O)c2ccccc21 [2,3-dichloronaphthoquinone] | – | IC50 [1, 6]: > 100 µM
CC1=CC(=O)c2ccccc2C1=O [2-methyl-1,4-naphthoquinone] | > 100 µM | –
CC(C)C[C@H](NC(=O)[C@H](Cc1ccccc1)NC(=O)c1cnccn1)B(O)O [Bortezomib, reference compound] | – | inhibition of CT-L activity of the 20S proteasome in the absence of dialysis [2]: 99%; time of dialysis at which CT-L activity started to recover [2]: 4 h
COc1cnc(NS(=O)(=O)c2ccc(NC3=C(Cl)C(=O)c4ccccc4C3=O)cc2)nc1 [Compound 2e, 4-(3-Chloro-1,4-dioxo-1,4-dihydronaphthalen-2-ylamino)-N-(5-methoxypyrimidin-2-yl)benzenesulfonamide] | 100 µM | –
COc1cc(NS(=O)(=O)c2ccc(NC3=C(Cl)C(=O)c4ccccc4C3=O)cc2)nc(OC)n1 [Compound 2i, 4-(3-Chloro-1,4-dioxo-1,4-dihydronaphthalen-2-ylamino)-N-(2,6-dimethoxypyrimidin-4-yl)-benzenesulfonamide] | 100 µM | –
CC1=C(Nc2ccc(S(=O)(=O)Nc3ccccn3)cc2)C(=O)c2ccccc2C1=O [Compound 2k, 4-(3-Methyl-1,4-dioxo-1,4-dihydronaphthalen-2-ylamino)-N-(pyridin-2-yl)benzenesulfonamide] | > 100 µM | –
CC1=C(Nc2ccc(S(=O)(=O)NC(=O)c3ccccc3)cc2)C(=O)c2ccccc2C1=O [Compound 2l, N-(4-(3-methyl-1,4-dioxo-1,4-dihydronaphthalen-2-ylamino)phenylsulfonyl) benzamide] | > 100 µM | –
COc1cnc(NS(=O)(=O)c2ccc(NC3=C(C)C(=O)c4ccccc4C3=O)cc2)nc1 [Compound 2m, N-(5-methoxypyrimidin-2-yl)-4-(3-methyl-1,4-dioxo-1,4-dihydronaphthalen-2-ylamino)-benzenesulfonamide] | > 100 µM | –
O=C(NS(=O)(=O)c1ccc(NC2=CC(=O)c3ccccc3C2=O)cc1)c1ccccc1 [Compound 2p, N-(4-(1,4-dioxo-1,4-dihydronaphthalen-2-ylamino)phenylsulfonyl)benzamide] | > 100 µM | –
Cc1cc(NS(=O)(=O)c2ccc(NC3=CC(=O)c4ccccc4C3=O)cc2)no1 [Compound 2q, 4-(1,4-Dioxo-1,4-dihydronaphthalen-2-ylamino)-N-(5-methylisoxazol-3-yl)benzenesulfonamide] | > 100 µM | –
O=C1C=C(Nc2ccc(S(=O)(=O)Nc3ccccn3)cc2)C(=O)c2ccccc21 [Compound 2r, 4-(1,4-Dioxo-1,4-dihydronaphthalen-2-ylamino)-N-(pyridin-2-yl)benzenesulfonamide] | > 100 µM | –
NS(=O)(=O)c1ccc(NC2=C(Cl)C(=O)c3ccccc3C2=O)cc1 [Compound 2t, 4-(3-Chloro-1,4-dioxo-1,4-dihydronaphthalen-2-ylamino)benzenesulfonamide] | > 100 µM | –
O=C1C(Cl)=C(Nc2ccc(S(=O)(=O)Nc3ccc(Cl)cc3)cc2)C(=O)c2ccccc21 [Compound 2u, 4-(3-Chloro-1,4-dioxo-1,4-dihydronaphthalen-2-ylamino)-N-(4-chlorophenyl)benzenesulfonamide] | > 100 µM | –
O=C1C(Cl)=C(Nc2ccc(S(=O)(=O)Nc3ccc(F)cc3F)cc2)C(=O)c2ccccc21 [Compound 2v, 4-(3-Chloro-1,4-dioxo-1,4-dihydronaphthalen-2-ylamino)-N-(2,4-difluorophenyl)benzenesulfonamide] | > 100 µM | –
O=C1C(Cl)=C(Nc2ccc(S(=O)(=O)Nc3ccc(Cl)cc3Cl)cc2)C(=O)c2ccccc21 [Compound 2w, 4-(3-Chloro-1,4-dioxo-1,4-dihydronaphthalen-2-ylamino)-N-(2,4-dichlorophenyl)benzenesulfonamide] | > 100 µM | –
CN(C1=C(Cl)C(=O)c2ccccc2C1=O)c1ccc(S(=O)(=O)Nc2ccccn2)cc1 [Compound 6a, 4-((3-Chloro-1,4-dioxo-1,4-dihydronaphthalen-2-yl)(methyl)amino)-N-(pyridin-2-yl) benzenesulfonamide] | – | IC50 [1, 6]: > 100 µM
CCN(C1=C(Cl)C(=O)c2ccccc2C1=O)c1ccc(S(=O)(=O)Nc2ccccn2)cc1 [Compound 6b, 4-((3-Chloro-1,4-dioxo-1,4-dihydronaphthalen-2-yl)(ethyl)amino)-N-(pyridin-2-yl) benzenesulfonamide] | – | IC50 [1, 6]: > 100 µM
O=C1C(Cl)=C(N(Cc2ccccc2)c2ccc(S(=O)(=O)Nc3ccccn3)cc2)C(=O)c2ccccc21 [Compound 6c, 4-(Benzyl(3-chloro-1,4-dioxo-1,4-dihydronaphthalen-2-yl)amino)-N-(pyridin-2-yl) benzenesulfonamide] | – | IC50 [1, 6]: > 100 µM
O=C1C(Cl)=C(Nc2ccc(S(=O)(=O)Nc3ccccn3)cc2)C(=O)c2ccccc21 [PI-083, 4-(3-Chloro-1,4-dioxo-1,4-dihydronaphthalen-2-ylamino)-N-(pyridin-2-yl)benzenesulfonamide] | – | inhibition of CT-L activity of the 20S proteasome in the absence of dialysis [2]: 88%; time of dialysis at which CT-L activity started to recover [2]: 1 h; IC50 (MCF-7 cells): 2.31 ± 0.1 µM; proliferation and survival of primary cells [3]: efficient in inhibiting proliferation and survival; apoptosis in cancer cell lines [4]: induces apoptosis; growth of human breast and lung tumor xenografts [5]: suppresses the growth; IC50 (purified Calpain): > 30 µM
Nc1ccc(S(=O)(=O)Nc2ccccn2)cc1 [sulfapyridine] | > 100 µM | –

Continued, in another order:

IC50 [1] | Molecule | other results
> 100 µM | O=C1C(Cl)=C(N(Cc2ccc([N+](=O)[O-])cc2)c2ccc(S(=O)(=O)Nc3ccccn3)cc2)C(=O)c2ccccc21 [Compound 6d, 4-((3-Chloro-1,4-dioxo-1,4-dihydronaphthalen-2-yl)(4-nitrobenzyl)amino)-N-(pyridin-2-yl)benzenesulfonamide] | –
> 100 µM | O=C1C(Cl)=C(N(Cc2ccc3ccccc3c2)c2ccc(S(=O)(=O)Nc3ccccn3)cc2)C(=O)c2ccccc21 [Compound 6e, 4-((3-Chloro-1,4-dioxo-1,4-dihydronaphthalen-2-yl)(naphthalen-2-ylmethyl)amino)-N-(pyridin-2-yl)benzenesulfonamide] | –
> 100 µM | Cc1ccc(CN(C2=C(Cl)C(=O)c3ccccc3C2=O)c2ccc(S(=O)(=O)Nc3ccccn3)cc2)cc1 [Compound 6f, 4-((3-Chloro-1,4-dioxo-1,4-dihydronaphthalen-2-yl)(4-methylbenzyl)amino)-N-(pyridin-2-yl)benzenesulfonamide] | –
> 100 µM | O=C1C(Cl)=C(N(Cc2ccc(C(F)(F)F)cc2)c2ccc(S(=O)(=O)Nc3ccccn3)cc2)C(=O)c2ccccc21 [Compound 6g, 4-((3-Chloro-1,4-dioxo-1,4-dihydronaphthalen-2-yl)(4-(trifluoromethyl)benzyl)amino)-N-(pyridin-2-yl)benzenesulfonamide] | –
